Source: publication PMC3029496 (Biochemistry, 2010)
Where two headings read alike, the source gives them in different places.

What was measured:
PncA [1] = biological target: T1, PncA (Mycobacterium tuberculosis, UniProt I6XD65); assay: Inactivation of PncA by iodoacetamide; assay type: biochemical; conditions: concentration and pH dependent loss of activity
NC(=O)c1cnccn1 = assay: purified protein, by the assay type; conditions: pH 7.5; 25.0 °C
[2] = biological target: Mycobacterium tuberculosis PncA (MtPncA) (Mycobacterium tuberculosis, UniProt I6XD65)
PncA [3] = biological target: T1, PncA; assay: biochemical; assay type: biochemical
PncA [4] = biological target: T1, PncA; assay type: biochemical

Sequence of Mycobacterium tuberculosis PncA (MtPncA) (I6XD65 whole entry): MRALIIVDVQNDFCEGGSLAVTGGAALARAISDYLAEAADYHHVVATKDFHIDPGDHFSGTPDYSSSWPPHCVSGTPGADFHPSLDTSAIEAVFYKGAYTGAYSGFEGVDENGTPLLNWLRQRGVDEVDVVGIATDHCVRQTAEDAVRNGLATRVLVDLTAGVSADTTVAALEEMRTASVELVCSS
T1 sequence (I6XD65 whole entry): as above

## NC(=O)CI [iodoacetamide]
PncA [1]
  inactivation of PncA: inactivator of PncA

## (Mycobacterium tuberculosis H37Rv)
NC(=O)c1cnccn1
  Km: 300 ± 40 µM
  kcat: 3.8 ± 0.1 s⁻¹
  kcat/Km: 13000 M⁻¹ s⁻¹

## NC(=O)c1ccc(N)nc1 [6-aminonicotinamide]
[2]
  enzymatic activity with the compound as substrate: did not observe any enzymatic activity

## N#Cc1cccnc1 [3-pyridinecarbonitrile]
PncA [3]
  mode of inhibition: reversible, competitive inhibitor
PncA [3]; Ki, reversible, competitive inhibitor
  Ki: ~100 µM
[2]
  enzymatic activity with the compound as substrate: Neither compound is a substrate

## O=Cc1cccnc1 [3-pyridine carboxaldehyde]
PncA [3]
  mode of inhibition: competitive inhibitor

## O=C(O)CN(CCN(CC(=O)O)CC(=O)O)CC(=O)O [EDTA, ethylenediaminetetraacetic acid]
[2]
  effect of addition on MtPncA activity: neither the addition of 5 mM EDTA, nor reported inhibitory metals (Zn^+2 for MtPncA) resulted in any decrease in activity

## N#Cc1cnccn1 [pyrazinecarbonitrile]
PncA [4]
  kinact/KI: 975 M⁻¹ s⁻¹
  mode of inhibition: irreversible inactivator
PncA [4]; pH 7.5
  kinact: Kinact = 0.06 ± 0.01 sec^−1 Ki = 61 ± 3 μM
PncA [4]; read-out: Ki (inactivation), pH 7.5
  KI (inactivation): 61 µM
[2]
  enzymatic activity with the compound as substrate: Neither compound is a substrate

## NC(=O)c1ccccc1 [benzamide]
[2]
  enzymatic activity with the compound as substrate: did not observe any enzymatic activity
